From the NIST ThermoML archive (doi:10.1021/je300737t)

Legend:
[1] = 101 kPa, Liquid; for mass density: Pycnometric method
[2] = xn = mol fraction of the nth substance listed; settings: 101 kPa, Liquid; for mass density: Pycnometric method

CCCCOCCO [2-butoxyethan-1-ol]
[1]
Settings	mass density [kg/m3]	viscosity [mPa·s]
298.15 K	896.16	2.782
303.15 K	892.74	2.499
308.15 K	888.88	2.206
313.15 K	884.29	1.946

CCCCOCCO [2-butoxyethan-1-ol] + O
[2]
Settings	mass density, 298.15 K [kg/m3]	mass density, 303.15 K [kg/m3]	mass density, 308.15 K [kg/m3]	mass density, 313.15 K [kg/m3]	viscosity, 298.15 K [mPa·s]	viscosity, 303.15 K [mPa·s]	viscosity, 308.15 K [mPa·s]	viscosity, 313.15 K [mPa·s]
x1 = 0.017	993.26	990.82	988.89	985.94	1.284	1.131	0.9936	0.8871
x1 = 0.037	986.46	982.92	980.38	977.64	1.849	1.622	1.465	1.302
x1 = 0.061	976.33	974.23	971.37	968.64	2.45	2.161	1.916	1.754
x1 = 0.092	967.1	964.31	961.45	958.48	2.998	2.635	2.334	2.054
x1 = 0.132	948.1	944.74	941.59	937.57	3.918	3.394	2.921	2.539
x1 = 1	896.16	892.74	888.88	884.29	2.782	2.499	2.206	1.946
